According to US20200338039A1, “METHODS AND MATERIALS FOR ASSESSING BIOLOGICAL AGE AND SLOWING THE PROGRESS OF EXCESSIVE BIOLOGICAL AGING” (The Scripps Research Institute, priority 2017, published 2020):

Tests used:
mice, 85 weeks of age = test: Late-life fisetin diet in aged mice: lifespan, tissue function, histopathology; format: in vivo, mouse; details: diet containing 500 ppm fisetin from 85 weeks of age
Protocol: At 85-weeks of age (>20 mth), male and female mice were administered a diet containing 500 ppm (500 mg/kg) fisetin or fed a control diet with no drug. n=8-9 mice per group. In the treatment group, median lifespan was increased 17% and maximum lifespan increased 12%. Log rank (Mantel-Cox) test. […] Levels of MCP-1 were measured in the serum of these mice by ELISA. n=5 mice per group. One-way ANOVA with Tukey's multiple comparison test. Values represented as the mean SEM, ***p<0.001, ****p<0.0001. Therefore, circulating levels of MCP-1 correlate with drug-induced improvements in health and lifespan (FIG. 12).

C57BL/6J mice = test: Composite lesion scores (geropathology grading, histology) in old mice on rapamycin diet; format: in vivo, mouse; details: two year-old C57BL/6J mice; rapamycin diet 14 ppm females / 42 ppm males for two months; average
Excerpt: Two year-old C57BL/6J mice were fed a diet containing rapamycin (14 ppm for females or 42 ppm for males) or a control diet for two months. […] In addition, rapamycin attenuated composite lesion scores in kidneys (FIG. 7), liver, and lungs of these mice by an average of 40, 41, and 29 percent, respectively.
Two year old C57BL/6J mice were obtained from the NIA Rodent Colony and treated with encapsulated rapamycin (Rapamycin Holdings, San Antonio Tex.) at 14 ppm for females and 42 ppm for males, or control (encapsulated only) diet for 8 weeks. Mice were sacrificed at 26 months and serum collected preceding necropsy. Ercc1^−/Δ mice were treated with Dasatinib and Quercetin as described elsewhere (see, e.g., Zhu et al., 2015 Aging cell. 14(4):644-658). Briefly, Ercc1^−/Δ mice were treated weekly with a combination of Dasatinib (5 mg/kg) and Quercetin (50 mg/kg) starting at 4-6 weeks of age. Therapeutics were administered in 10% PEG400 by oral gavage. Litters with multiple Ercc1^−/Δ mice were used to enable comparison of sibling pairs that were treated with therapeutic vs vehicle only. Mice (n=5-6 per group) were sacrificed at 16 weeks and serum collected by cardiac puncture.
Mouse tissues were collected at necropsy and placed in 10% buffered formalin for 48 hours, transferred to 70% alcohol, and subsequently processed into paraffin blocks for sectioning and hematoxylin and eosin staining. Histology slides were validated for age-related lesions by a veterinary pathologist and scored for lesion severity to create a composite lesion score for age-related renal pathology in each animal (see, e.g., Ladiges 2016 Pathobiol Aging Age Relat Dis. 6:31478).

[1] = male and female mice, vs control diet

SMILES | age-related histopathology (mice, 85 weeks of age) | tissue function (mice, 85 weeks of age) | increase in maximum lifespan (mice, 85 weeks of age; [1]) [%] | increase in median lifespan (mice, 85 weeks of age; [1]) [%] | attenuation of composite lesion score, kidneys (C57BL/6J mice) [%] | attenuation of composite lesion score, liver (C57BL/6J mice) [%] | attenuation of composite lesion score, lungs (C57BL/6J mice) [%]
O=c1c(O)c(-c2ccc(O)c(O)c2)oc2cc(O)ccc12 [fisetin] | decreased in multiple organs | improved | 12 | 17 |  |  | 
CO[C@H]1C[C@@H]2CC[C@@H](C)[C@@](O)(O2)C(=O)C(=O)N2CCCC[C@H]2C(=O)O[C@H]([C@H](C)C[C@@H]2CC[C@@H](O)[C@H](OC)C2)CC(=O)[C@H](C)/C=C(\C)[C@@H](O)[C@@H](OC)C(=O)[C@H](C)C[C@H](C)/C=C/C=C/C=C/1C [rapamycin] |  |  |  |  | 40 | 41 | 29
